{"source": "patent US20070142302A1", "about": "“PEPTIDYL PRODRUGS THAT RESIST P-GLYCOPROTEIN MEDIATED DRUG EFFLUX” (The Curators of the University of Missouri, priority 2004, published 2007)", "key": {"[1]": {"test_system": "MDCKII-MDR1 cell monolayers", "test": "in vitro", "experimental": "(§1) Confluency was assessed by light microscopy.\n(§2) Transport studies were conducted with MDCKII-MDR1 cell monolayers grown on 12-well Transwell® inserts (12 mm diameter). The medium was aspirated, and cell monolayers were washed three times (10 minutes per wash) with DPBS (pH 7.4). Volumes of the apical and basolateral chambers were 0.5 and 1.5 ml, respectively. Transport experiments were conducted for a period of 3 hours. Aliquots (200 μl) were withdrawn at predetermined time intervals, i.e., 15, 30, 45, 60, 90, 120, 150, and 180 minutes and replaced with fresh DPBS (pH 7.4) to maintain sink conditions. Samples were stored at −80° C. until further analysis. Experiments designed to investigate the effect of inhibitors involved preincubation of the cells with the inhibitor for a period of 30 minutes (inhibitor solution was added to both donor and receiver chambers) prior to the addition of the drug solution (also containing the inhibitor) to initiate the transport study. All transport experiments were performed at 37° C.\n(§3) The HPLC system comprised an HP 1050 pump, an Agilent 1100 series fluorescence detector, and an Alcott autosampler (model 718 HPLC). A C(8) Luna column (250 mm×4.6 mm); Phenomenex, Torrance, Calif.) was employed in the analysis. The mobile phase consisted of 20 mM phosphate buffer (pH adjusted to 2.5) and 12% acetonitrile as the organic modifier. The parent drug and the derivative were detected with a fluorescence detector (λex=240 nm, λem=450 nm).\n(§4) Linear regression analysis of the amounts transported as a function of time yielded the rate of transport across the cell monolayer (dM/dt). The rate divided by the cross-sectional are available for transport (A) generated the steady-state flux as shown in Equation 1. flux=(dM/dt)/A (Equation 1) Permeability was calculated by normalizing the steady-state flux to the donor concentration (Cd) of the drug according to Equation 2. Permeability=flux/Cd (Equation 2)\n(§5) Transport studies with MDCKII-MDR1 cell monolayers were carried out as described in Example 7. […] Detection issues of the prodrug and/or parent drug in the acceptor chamber was considered for the selection of prodrug concentration. Aliquots (200 μL) were withdrawn at predetermined time intervals, i.e., 15, 30, 45, 60, 90, 120, 150, 180 min, respectively, and replaced with fresh DPBS, pH 7.4, to maintain sink conditions. Dilutions were taken into account for the calculations. Samples were stored at −80° C. until further analysis. All transport experiments were performed at 37° C.\n(§6) The HPLC system was comprised of HP 1050 pump, Waters dual wavelength absorbance UV detector, and an Alcott auto sampler (model 718AL HPLC). A C(8) Luna column (250 mm×4.6 mm; Phenomenex, Torrance, Calif.) was employed for the separation of analytes. Mobile phase composed of acetonitrile:water:triethylamine (55:44:1%, v/v/v) and the pH was adjusted to 6.5 with o-phosphoric acid. Flow rate was maintained at 0.8 mL/min and detection wavelength was set at 240 nm.\n(§7) Intact prodrug transported and breakdown products, formed during the transport study, were analyzed. Cumulative amount of drug transported (the sum of prodrug and regenerated parent drug) was plotted as a function of time. Apparent permeabilities (Papp) were determined from the linear portion of the cumulative amount versus time plot."}, "P-gp [2]": {"target": "P-gp (Homo sapiens, UniProt P08183)", "sequence (P08183 whole entry)": "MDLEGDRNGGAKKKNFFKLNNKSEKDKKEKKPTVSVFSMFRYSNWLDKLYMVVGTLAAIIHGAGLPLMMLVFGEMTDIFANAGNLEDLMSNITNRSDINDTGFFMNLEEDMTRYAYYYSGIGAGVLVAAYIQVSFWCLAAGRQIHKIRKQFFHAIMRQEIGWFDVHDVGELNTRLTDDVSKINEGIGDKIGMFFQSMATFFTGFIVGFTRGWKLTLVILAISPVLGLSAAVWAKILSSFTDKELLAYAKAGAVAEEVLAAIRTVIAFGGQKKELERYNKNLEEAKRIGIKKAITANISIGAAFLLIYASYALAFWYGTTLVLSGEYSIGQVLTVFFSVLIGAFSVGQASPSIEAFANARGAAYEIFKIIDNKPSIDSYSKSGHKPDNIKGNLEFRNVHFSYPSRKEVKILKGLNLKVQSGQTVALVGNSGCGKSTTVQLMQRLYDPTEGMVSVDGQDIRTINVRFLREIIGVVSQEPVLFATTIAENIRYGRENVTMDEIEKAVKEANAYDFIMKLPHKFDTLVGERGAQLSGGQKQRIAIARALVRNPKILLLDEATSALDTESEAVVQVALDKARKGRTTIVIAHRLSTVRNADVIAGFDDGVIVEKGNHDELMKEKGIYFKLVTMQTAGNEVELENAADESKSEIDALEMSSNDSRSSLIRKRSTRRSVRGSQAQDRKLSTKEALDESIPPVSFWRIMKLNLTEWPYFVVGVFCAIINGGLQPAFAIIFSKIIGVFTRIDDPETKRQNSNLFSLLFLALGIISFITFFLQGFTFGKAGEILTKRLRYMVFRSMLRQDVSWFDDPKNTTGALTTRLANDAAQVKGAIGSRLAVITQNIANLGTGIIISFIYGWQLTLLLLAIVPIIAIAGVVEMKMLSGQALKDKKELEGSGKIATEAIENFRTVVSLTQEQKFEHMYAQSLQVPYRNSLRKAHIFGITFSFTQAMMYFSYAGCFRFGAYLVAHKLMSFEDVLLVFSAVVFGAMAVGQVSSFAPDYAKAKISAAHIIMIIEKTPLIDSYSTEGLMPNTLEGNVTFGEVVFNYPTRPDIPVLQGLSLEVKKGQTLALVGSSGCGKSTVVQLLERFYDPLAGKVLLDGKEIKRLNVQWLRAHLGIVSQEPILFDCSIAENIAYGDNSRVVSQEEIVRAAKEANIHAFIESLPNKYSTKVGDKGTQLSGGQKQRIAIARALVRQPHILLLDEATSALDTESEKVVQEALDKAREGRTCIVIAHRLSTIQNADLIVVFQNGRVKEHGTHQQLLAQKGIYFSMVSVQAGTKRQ", "settings": "MDCKII-MDR1 cells", "excerpt": "Two different concentrations were employed to examine the effect of prodrug concentration on P-gp inhibition."}, "peptide transporter [3]": {"test_system": "peptide transporter", "test": "Uptake of [^3H]Gly-Sar by MDCKII-MDR1 cells in the presence of drug/derivative", "type": "cell-based, dog", "settings": "for Effect on [^3H]Gly-Sar uptake: 100 μM SQV or prodrug; for Reduction of [^3H]Gly-Sar uptake: 100 μM prodrug; for Concentration dependence of inhibition of [^3H]Gly-Sar uptake: SQV prodrugs, different concentrations up to 100 μM"}, "[4]": {"test_system": "MDCKII-MDR1 cell homogenates", "settings": "dog", "experimental": "Confluent MDCKII-MDR1 cells were washed three times with Dulbecco's phosphate buffered saline (DPBS) (130 mM NaCl, 7.5 mM Na2HPO4, 1.5 mM KH2PO4, 0.5 mM MgSO4, 1 mM CaCl2, […] and 5 mM glucose). Cells were then isolated with the aid of a mechanical scrapper and suspended in two volumes of water and homogenized (Multipro variable speed homogenizer, DREMEL; Racine, Wis.). Suitable dilutions were made to achieve a final protein concentration of 0.25 mg/mL. Protein content was determined according to the method of Bradford (Bradford, Anal. Biochem., 72, 248 (1976)) with BioRad protein estimation kit.\nAn aliquot (800 μL) of the cell homogenate was incubated with 200 μL (30 μg/mL) prodrug solution at 37° C. in a shaking water bath (60 rpm). One hundred microlitres samples were withdrawn at predetermined time points and an equal volume of ice-cold acetonitrile:methanol (5:4) mixture was added to stop the enzymatic reaction. Samples were stored at −80° C. until further analysis."}, "[5]": {"settings": "buffer", "experimental": "Stability in DPBS was determined by incubating 200 μL prodrug solution with 800 μL DPBS with pH adjusted to 5 and 7.4. Slope of the line of “log percentage prodrug remaining versus time” plot was employed to calculate the degradation rate constants."}, "in vitro": {"test": "in vitro", "settings": "dog, MDCK-MDR1", "experimental": "as §1, §2, §3, §4, §5, §6, §7"}, "P-gp (human MDR1)": {"test_system": "P-gp (human MDR1)", "test": "in vitro", "settings": "dog, MDCK-MDR1, pH 7.4", "experimental": "as §1, §2, §3, §4, §5, §6, §7"}, "peptide transporter [6]": {"test_system": "peptide transporter", "test": "Uptake of [^3H]Gly-Sar by MDCKII-MDR1 cells in the presence of drug/derivative", "type": "cell-based, dog", "settings": "for Inhibition of [^3H]Gly-Sar uptake: MDCKII-MDR1 cells, quinidine and derivatives; for Uptake of [^3H]Gly-Sar: control 0.033", "experimental": "Studies were performed to investigate whether derivatives of quinidine are substrates for a nutrient peptide transport system.\nUnlabeled Gly-Sar at concentrations of 1 and 2 mM reduced the uptake of [^3H]Gly-Sar from 0.033 to 0.026 pmol/(min mg) (20%) and 0.019 pmol/(min mg) (41%), respectively (FIG. 9)."}, "P-gp [7]": {"target": "P-gp (Oryctolagus cuniculus, UniProt Q6UUW3)", "sequence (Q6UUW3 1-1279)": "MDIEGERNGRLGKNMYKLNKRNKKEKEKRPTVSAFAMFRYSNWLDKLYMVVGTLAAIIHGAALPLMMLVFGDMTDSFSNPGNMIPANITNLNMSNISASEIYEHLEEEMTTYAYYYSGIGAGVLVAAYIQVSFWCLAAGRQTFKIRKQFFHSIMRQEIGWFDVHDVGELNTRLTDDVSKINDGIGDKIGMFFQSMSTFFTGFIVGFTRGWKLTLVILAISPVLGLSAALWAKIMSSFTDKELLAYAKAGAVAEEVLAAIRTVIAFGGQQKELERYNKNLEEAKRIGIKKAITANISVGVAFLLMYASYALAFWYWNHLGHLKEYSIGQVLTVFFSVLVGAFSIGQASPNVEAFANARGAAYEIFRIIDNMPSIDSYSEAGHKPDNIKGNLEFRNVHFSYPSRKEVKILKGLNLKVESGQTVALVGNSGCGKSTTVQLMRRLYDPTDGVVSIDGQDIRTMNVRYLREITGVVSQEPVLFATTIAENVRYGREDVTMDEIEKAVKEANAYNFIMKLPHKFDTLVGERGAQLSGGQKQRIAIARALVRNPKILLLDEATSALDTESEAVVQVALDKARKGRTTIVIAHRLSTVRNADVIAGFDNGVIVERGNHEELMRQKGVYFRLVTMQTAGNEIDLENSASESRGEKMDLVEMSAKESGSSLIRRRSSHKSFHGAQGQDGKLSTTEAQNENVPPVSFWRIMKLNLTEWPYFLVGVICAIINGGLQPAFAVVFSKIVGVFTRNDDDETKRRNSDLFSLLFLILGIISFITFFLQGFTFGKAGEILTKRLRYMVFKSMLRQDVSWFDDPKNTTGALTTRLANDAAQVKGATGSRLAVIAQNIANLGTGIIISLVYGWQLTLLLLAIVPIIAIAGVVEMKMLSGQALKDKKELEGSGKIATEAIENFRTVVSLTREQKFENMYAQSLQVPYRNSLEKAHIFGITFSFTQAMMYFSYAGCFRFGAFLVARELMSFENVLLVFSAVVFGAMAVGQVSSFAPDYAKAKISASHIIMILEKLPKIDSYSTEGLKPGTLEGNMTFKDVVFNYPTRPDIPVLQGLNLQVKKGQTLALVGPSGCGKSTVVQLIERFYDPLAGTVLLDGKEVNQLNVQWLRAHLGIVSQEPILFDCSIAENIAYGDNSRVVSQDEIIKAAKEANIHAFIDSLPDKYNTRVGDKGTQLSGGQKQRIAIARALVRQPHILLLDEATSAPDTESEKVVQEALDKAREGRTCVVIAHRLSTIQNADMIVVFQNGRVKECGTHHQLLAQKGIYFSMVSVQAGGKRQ", "settings": "rPCEC cells, equimolar concentrations", "procedure": "Adult male New Zealand albino rabbits weighing between 2-2.5 kg were obtained from Myrtle's rabbitry, Thompson Station, Tenn. Rabbit corneas were excised and washed thoroughly with DPBS, blotted dry, and transferred to sterile culture dishes containing 0.5 ml trypsin (0.25%) or 1.2 U/ml protease (Dispase II, Roche Molecular Biochemical). The corneas were placed upside down (with the concave surface touching the protease solution) and incubated at 37° C. for 30 minutes. The epithelial cells were stripped off with gentle scraping from peripheral areas (1-1.5 mm from the limbus) to the center. Care was taken to peel only the epithelial layer and not the underlying stromal layer, because that would contaminate the epithelial cells with keratinocytes. Cells were washed with MEM (Life Technologies, Grand Island, N.Y.) and placed in culture dishes. After 12 hours (when most of the cells had attached to the bottom), the MEM was removed and fresh MEM supplemented with insulin (5 μg/ml), transferrin (5 μg/ml), sodium selinite (5 μg/ml), amphotericin B (0.25 μg/ml), polymyxin B sulfate (0.5 μg/ml), penicillin (100 U/ml), streptomycin (100 μg/ml), human recombinant epidermal growth factor (10 ng/ml), and bovine pituitary extract (50 μg/ml) were added. The medium was changed twice a week, and the cells were subcultured every 7 to 10 days (subculture ratio, 1:5). […]"}, "P-gp [8]": {"test_system": "P-gp", "settings": "rabbit, in vivo", "procedure": "Adult male New Zealand albino rabbits weighing between 2-2.5 kg were obtained from Myrtle's rabbitry, Thompson Station, Tenn. Throughout an experiment, the animals were kept under anesthesia with ketamine HCl (35 mg/kg) and xylazine (3.5 mg/kg) given intramuscularly every hour. Pupils were dilated with two drops of 1% tropicamide prior to implantation of microdialysis probes. Linear probes were implanted in the anterior chamber using 25-gauge needles. They were inserted across the cornea just above the corneal scleral limbus so that they traversed through the center of the anterior chamber to the opposite end of the cornea, as evidenced by microscopic examination. The sample-collecting end of the linear probe was inserted carefully into the beveled edge end of the needle. The needle was retracted slowly, leaving the probe in the dialyzing membrane in the middle of the anterior chamber. The outlets of the probes were fixed to prevent any disturbances during sample collection. The probes were perfused with isotonic IPBS (pH 7.4) at a flow rate of 2 μl/min using a CMA/100 microinjection pump. After probe implantation, the animals were allowed to stabilize for 2 hours prior to the initiation of any study. […] Samples obtained in the study were analyzed by a scintillation counter (LS 6500, Beckman Instruments, Inc., Fullerton, Calif.)."}}, "note": "Entries after “also recorded” stand apart in the source; their conditions may differ. Square brackets hold non-standard residues; d marks the D form. Peptide text beside a SMILES is read from it. Sar = CNCC(=O)O"}
{"smiles": "CC(C)[C@H](N)C(=O)N[C@H](C(=O)O[C@H](CN1C[C@H]2CCCC[C@H]2C[C@H]1C(=O)NC(C)(C)C)[C@H](Cc1ccccc1)NC(=O)[C@H](CC(N)=O)NC(=O)c1ccc2ccccc2n1)C(C)C", "note": "[Val-Val-SQV, Val-Val-saquinavir]", "values": [{"measurement": "Efflux ratio (BL Papp/AP Papp)", "setting": "[1]; MDCK-MDR1", "result": 6}, {"measurement": "Concentration at which the prodrug saturates P-gp", "setting": "P-gp [2]", "result": 50, "unit": "µM"}, {"measurement": "Effect on [^3H]Gly-Sar uptake", "setting": "peptide transporter [3]", "result": "significantly decreased"}, {"measurement": "Reduction of [^3H]Gly-Sar uptake", "setting": "peptide transporter [3]", "result": 35, "unit": "%"}, {"measurement": "Concentration dependence of inhibition of [^3H]Gly-Sar uptake", "setting": "peptide transporter [3]", "result": "concentration dependent inhibition"}, {"measurement": "Half-life (t1/2) in MDCK-MDR1 cell homogenates", "setting": "[4]", "result": "6.6 ± 0.56", "unit": "h"}, {"measurement": "Half-life (t1/2) in DPBS, pH 5", "setting": "[5]", "result": "94.8±21.4", "unit": "h"}, {"measurement": "Half-life (t1/2) in DPBS, pH 7.4", "setting": "[5]", "result": "18.3±1.4", "unit": "h"}]}
{"smiles": "OC[C@@H](O)[C@@H](O)[C@H](O)[C@H](O)CO", "note": "[[^14C]mannitol, mannitol, reference compound]", "values": [{"measurement": "[^14C]mannitol transport across the cell monolayer", "setting": "[1]; dog, MDCK-MDR1", "result": "< 0.5", "unit": "%/h"}, {"measurement": "Papp", "setting": "in vitro", "result": "< 0.2", "unit": "×10⁻⁶ cm/s"}]}
{"smiles": "C=C[C@H]1C[N@@]2CC[C@H]1C[C@@H]2[C@@H](O)c1ccnc2ccc(OC)cc12", "note": "[quinidine, reference compound]", "values": [{"measurement": "Papp A→B at 3 h, 10 μM", "setting": "P-gp (human MDR1)", "result": 6.5, "unit": "×10⁻⁶ cm/s"}, {"measurement": "Papp B→A at 3 h, 10 μM", "setting": "P-gp (human MDR1)", "result": 18.3, "unit": "×10⁻⁶ cm/s"}, {"measurement": "Difference between AP-BL and BL-AP permeability", "setting": "[1]; MDCK-MDR1", "result": "three fold difference"}, {"measurement": "Inhibition of [^3H]Gly-Sar uptake", "setting": "peptide transporter [6]", "result": "did not demonstrate any inhibition"}, {"measurement": "Inhibitory effect on P-gp mediated efflux ([^3H]erythromycin uptake)", "setting": "P-gp [7]", "result": "high inhibitory effect"}, {"measurement": "Inhibition of the P-gp mediated efflux pump", "setting": "P-gp [8]", "result": "caused inhibition"}]}
{"smiles": "CC(C)[C@H](NC(=O)CN)C(=O)O[C@H](CN1C[C@H]2CCCC[C@H]2C[C@H]1C(=O)NC(C)(C)C)[C@H](Cc1ccccc1)NC(=O)[C@H](CC(N)=O)NC(=O)c1ccc2ccccc2n1", "note": "[Gly-Val-SQV, Gly-Val-saquinavir]", "values": [{"measurement": "Efflux ratio (BL Papp/AP Papp)", "setting": "[1]; MDCK-MDR1", "result": 6}, {"measurement": "Concentration at which the prodrug saturates P-gp", "setting": "P-gp [2]", "result": 75, "unit": "µM"}, {"measurement": "Effect on [^3H]Gly-Sar uptake", "setting": "peptide transporter [3]", "result": "significantly decreased"}, {"measurement": "Reduction of [^3H]Gly-Sar uptake", "setting": "peptide transporter [3]", "result": 42, "unit": "%"}, {"measurement": "Concentration dependence of inhibition of [^3H]Gly-Sar uptake", "setting": "peptide transporter [3]", "result": "concentration dependent inhibition"}, {"measurement": "Half-life (t1/2) in MDCK-MDR1 cell homogenates", "setting": "[4]", "result": "1.75 ± 0.11", "unit": "h"}, {"measurement": "Half-life (t1/2) in DPBS, pH 5", "setting": "[5]", "result": "34.5±0.85", "unit": "h"}, {"measurement": "Half-life (t1/2) in DPBS, pH 7.4", "setting": "[5]", "result": "13.1±0.33", "unit": "h"}]}
{"smiles": "C=CC1CN2CCC1CC2C(OC(=O)C(N)C(C)C)c1ccnc2ccc(OC)cc12", "note": "(centres unmarked) [Val-Q, Val-Quinidine]", "values": [{"measurement": "Difference between AP-BL and BL-AP permeability", "setting": "[1]; MDCK-MDR1", "result": "equivalent"}, {"measurement": "Apparent permeability Papp AP-BL", "setting": "[1]; MDCK-MDR1, pH 7.4", "result": "5.13±0.49×10^−6 cm.s^−1"}, {"measurement": "Apparent permeability Papp BL-AP", "setting": "[1]; MDCK-MDR1, pH 7.4", "result": "6.17±1.28×10^−6 cm.s^−1"}, {"measurement": "Inhibition of [^3H]Gly-Sar uptake", "setting": "peptide transporter [6]", "result": "concentration dependent inhibition"}]}
{"smiles": "CC(C)(C)NC(=O)[C@@H]1C[C@@H]2CCCC[C@@H]2CN1C[C@@H](O)[C@H](Cc1ccccc1)NC(=O)[C@H](CC(N)=O)NC(=O)c1ccc2ccccc2n1", "note": "[SQV, saquinavir, reference compound]", "values": [{"measurement": "Effect on [^3H]Gly-Sar uptake", "setting": "peptide transporter [3]", "result": "did not demonstrate any significant inhibition"}]}
{"smiles": "CN(CC(=O)O)C(=O)CN", "note": "[Gly-Sar, Glycyl-Sarcosine] (H-Gly-[Sar]-OH)", "values": [{"measurement": "Reduction of [^3H]Gly-Sar uptake", "setting": "peptide transporter [6]; 1 mM unlabeled Gly-Sar", "result": 20, "unit": "%"}, {"measurement": "Uptake of [^3H]Gly-Sar", "setting": "peptide transporter [6]; 1 mM unlabeled Gly-Sar", "result": 0.026, "unit": "pmol/min/mg"}, {"measurement": "Reduction of [^3H]Gly-Sar uptake", "setting": "peptide transporter [6]; 2 mM unlabeled Gly-Sar", "result": 41, "unit": "%"}, {"measurement": "Uptake of [^3H]Gly-Sar", "setting": "peptide transporter [6]; 2 mM unlabeled Gly-Sar", "result": 0.019, "unit": "pmol/min/mg"}, {"measurement": "Concentration dependence of [^3H]Gly-Sar cellular accumulation", "setting": "peptide transporter [6]; unlabeled Gly-Sar 1 mM and 2 mM", "result": "concentration dependent decrease; also recorded: concentration dependent reduction"}]}
{"smiles": "C=C[C@H]1CN2CC[C@H]1C[C@@H]2[C@@H](OC(=O)[C@@H](NC(=O)[C@@H](N)C(C)C)C(C)C)c1ccnc2ccc(OC)cc12", "note": "[Val-Val-Q, Val-Val-Quinidine]", "values": [{"measurement": "Inhibition of [^3H]Gly-Sar uptake", "setting": "peptide transporter [6]", "result": "concentration dependent inhibition"}]}
